The text below walks through data of PubChem BioAssay (NCI).

Test systems include A498 renal; CCRF-CEM leukemia; CAKI-1 renal; SW-620 colon; RXF 393 renal; SF-268 CNS; SK-OV-3 ovarian; SK-MEL-5 melanoma; MDA-MB-231 breast.
What all share (assay): DTP human tumour cell line panel, 48 h

Molecules are shown by their SMILES.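 Compound exposure: 48 hours, 5 concentrations, 96-well plates. GI50 marks 50% less growth. TGI marks complete inhibition of growth.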

Regarding `COc1cccc(C2=NC(C(C)C)CO2)c1` (configuration not stated), the total growth inhibition concentration (TGI) in the test on A498 renal, in the test on CCRF-CEM leukemia, in the test with CAKI-1 renal, in the test with SW-620 colon, with RXF 393 renal and in the test with SF-268 CNS was over 100 µM each time. Besides, the TGI in the test with SK-OV-3 ovarian and in the test with SK-MEL-5 melanoma was over 100 µM in each case.
`CC12CP(=O)(c3ccccc3)CC1C2(Cl)Cl` (configuration not stated): the TGI in the test with CCRF-CEM leukemia, in the test on SW-620 colon, with RXF 393 renal, in the test on SK-OV-3 ovarian and in the test with SK-MEL-5 melanoma was over 100 µM in each case.
As to `COc1ccc(/C=C2/N=C(c3ccccc3)N(c3c(C)n(C)n(-c4ccccc4)c3=O)C2=O)cc1OC`, the GI50 was over 100 µM in the test with A498 renal; over 100 µM in the test with CCRF-CEM leukemia; 37.1 µM with CAKI-1 renal; over 100 µM with SW-620 colon; over 100 µM in the test with RXF 393 renal; over 100 µM with MDA-MB-231 breast. Moreover, the GI50 in the test with SF-268 CNS is over 100 µM; with SK-OV-3 ovarian, over 100 µM; with SK-MEL-5 melanoma, 51.7 µM. The TGI in the test with A498 renal, in the test with CCRF-CEM leukemia, in the test with CAKI-1 renal, in the test with SW-620 colon, with RXF 393 renal and in the test with MDA-MB-231 breast was over 100 µM throughout. Also, the concentration for total growth inhibition (TGI) with SF-268 CNS, with SK-OV-3 ovarian and in the test with SK-MEL-5 melanoma was over 100 µM each time.
As to `Cc1cc(Cl)ccc1NC(=O)C(=O)Cc1nc2ccccc2o1`, the TGI in the test on A498 renal, in the test on CCRF-CEM leukemia, in the test on CAKI-1 renal, with SW-620 colon, in the test on RXF 393 renal and in the test on SF-268 CNS was over 100 µM throughout. The TGI in the test on SK-OV-3 ovarian and in the test with SK-MEL-5 melanoma was over 100 µM in each case.
`O=C(c1ccccc1)c1cc2ccccc2o1`: the GI50 was 39.9 µM in the test with A498 renal; over 100 µM with CCRF-CEM leukemia; 67 µM with CAKI-1 renal; 80 µM in the test with SW-620 colon; 88 µM in the test with RXF 393 renal; 91.9 µM in the test with MDA-MB-231 breast. Also, the GI50 in the test with SF-268 CNS was 70.3 µM; in the test with SK-OV-3 ovarian, over 100 µM; with SK-MEL-5 melanoma, 80 µM. Besides, the TGI in the test on A498 renal, in the test with CCRF-CEM leukemia, in the test with CAKI-1 renal, in the test with SW-620 colon, with RXF 393 renal and in the test on MDA-MB-231 breast was over 100 µM in each case. The TGI with SF-268 CNS, with SK-OV-3 ovarian and in the test with SK-MEL-5 melanoma was over 100 µM in each case.
For the compound `COc1ccc(CC2NCCc3c2[nH]c2ccccc32)cc1` (configuration not stated), the concentration for total growth inhibition (TGI) in the test on A498 renal, in the test on CCRF-CEM leukemia, in the test with SW-620 colon, in the test with SF-268 CNS, with SK-OV-3 ovarian and in the test on SK-MEL-5 melanoma was over 100 µM each time.
On to `COc1cc(-n2cc(-c3ccc(F)cc3)[nH]c2=O)cc(OC)c1OC`, for which the GI50 with CAKI-1 renal was over 100 µM; in the test on SW-620 colon it was over 100 µM; with RXF 393 renal, over 100 µM; with MDA-MB-231 breast it was 49.5 µM; in the test with SF-268 CNS, over 100 µM; in the test with SK-OV-3 ovarian, over 100 µM. Besides, the GI50 with SK-MEL-5 melanoma is over 100 µM. Besides, the concentration for total growth inhibition (TGI) in the test on CAKI-1 renal, with SW-620 colon, in the test with RXF 393 renal, in the test on MDA-MB-231 breast, in the test on SF-268 CNS and with SK-OV-3 ovarian was over 100 µM each time. In the test with SK-MEL-5 melanoma, the TGI was over 100 µM.
Take `Cn1cc(-c2csc(-c3c[nH]c4ccc(F)cc34)n2)c2cnccc21`: the GI50 with A498 renal is 1.87 µM; in the test on CAKI-1 renal, 1.65 µM; with SW-620 colon it was 2.12 µM; in the test on RXF 393 renal, 1.78 µM; in the test on MDA-MB-231 breast, 1.46 µM; in the test on SF-268 CNS it was 1.94 µM. In addition, the values for the GI50 with SK-OV-3 ovarian and in the test with SK-MEL-5 melanoma were 1.73 µM and 1.65 µM, respectively. Also, the TGI in the test with A498 renal turned out to be 3.31 µM; with CAKI-1 renal it was 3.05 µM; with SW-620 colon, 4.09 µM; with RXF 393 renal, 3.25 µM; in the test on MDA-MB-231 breast, 2.93 µM; in the test on SF-268 CNS it was 3.58 µM. Further, the TGI was 3.16 µM in the test on SK-OV-3 ovarian and 3.05 µM in the test with SK-MEL-5 melanoma.
On to `NC(=O)C12CC3CC(CC(F)(C3)C1)C2`, for which the TGI in the test on A498 renal, in the test with CCRF-CEM leukemia, with SW-620 colon, with RXF 393 renal and in the test with SK-OV-3 ovarian was over 100 µM each time.
Turning to `O=c1ccn([C@H]2CSC[C@@H](CO)C2)c(=O)[nH]1`, the TGI with A498 renal, with CCRF-CEM leukemia, in the test on CAKI-1 renal, with SW-620 colon, in the test with SF-268 CNS and in the test with SK-OV-3 ovarian was over 100 µM throughout. In the test with SK-MEL-5 melanoma, this compound came in with a concentration for total growth inhibition (TGI) of over 100 µM.
As to `CCCc1nc(NC#N)nc(C(=O)Nc2ccccc2)c1CC`, the total growth inhibition concentration (TGI) with A498 renal, with CAKI-1 renal, in the test with SW-620 colon, in the test on RXF 393 renal, in the test with SF-268 CNS and with SK-MEL-5 melanoma was over 100 µM each time.
With `O=C(CSc1nc2ccccc2nc1-c1ccccc1)Nc1ccc(F)cc1`, the GI50 with A498 renal is 41.7 µM; in the test on CCRF-CEM leukemia, over 100 µM; in the test with CAKI-1 renal, over 100 µM; with SW-620 colon, 61 µM; in the test with RXF 393 renal, 18.6 µM; with MDA-MB-231 breast, 34.3 µM. Further, the GI50 in the test on SF-268 CNS was 41.6 µM; in the test on SK-OV-3 ovarian it was 35 µM; in the test on SK-MEL-5 melanoma it was 16.5 µM. Moreover, the TGI with A498 renal was over 100 µM; with CCRF-CEM leukemia it was over 100 µM; with CAKI-1 renal, over 100 µM; in the test on SW-620 colon, over 100 µM; with RXF 393 renal, 68.5 µM; in the test with MDA-MB-231 breast it was over 100 µM. Moreover, the total growth inhibition concentration (TGI) was over 100 µM with SF-268 CNS, over 100 µM in the test on SK-OV-3 ovarian and 54.8 µM in the test with SK-MEL-5 melanoma.
On to `C1=CC(N(c2ccccc2)C2C=CCCC2)CCC1` (configuration not stated), for which the total growth inhibition concentration (TGI) in the test with A498 renal, with CCRF-CEM leukemia, with CAKI-1 renal, with SW-620 colon, in the test on RXF 393 renal and in the test on SF-268 CNS was over 100 µM each time. The TGI in the test with SK-OV-3 ovarian and in the test with SK-MEL-5 melanoma was over 100 µM each time.
